Laboratory results published in article PMC4488150, “Structure-Based Optimization and Biological Evaluation of Pancreatic Lipase Inhibitors as Novel Potential Antiobesity Agents” (Natural Products and Bioprospecting, 2015).
“Also recorded” adds a separate entry of the source.

Assays:
[1] = molecular target: T1, Porcine pancreatic lipase (Sus scrofa, UniProt P00591); assay: In vitro pancreatic lipase inhibitory activity (p-nitrophenyl butyrate hydrolysis); format: biochemical; conditions: for IC50: read-out: IC50 against pancreatic lipase; for pancreatic lipase inhibitory activity compared with compound A1: compared with compound A1 (best inhibitor of the first series)
T1 sequence (P00591 1-450): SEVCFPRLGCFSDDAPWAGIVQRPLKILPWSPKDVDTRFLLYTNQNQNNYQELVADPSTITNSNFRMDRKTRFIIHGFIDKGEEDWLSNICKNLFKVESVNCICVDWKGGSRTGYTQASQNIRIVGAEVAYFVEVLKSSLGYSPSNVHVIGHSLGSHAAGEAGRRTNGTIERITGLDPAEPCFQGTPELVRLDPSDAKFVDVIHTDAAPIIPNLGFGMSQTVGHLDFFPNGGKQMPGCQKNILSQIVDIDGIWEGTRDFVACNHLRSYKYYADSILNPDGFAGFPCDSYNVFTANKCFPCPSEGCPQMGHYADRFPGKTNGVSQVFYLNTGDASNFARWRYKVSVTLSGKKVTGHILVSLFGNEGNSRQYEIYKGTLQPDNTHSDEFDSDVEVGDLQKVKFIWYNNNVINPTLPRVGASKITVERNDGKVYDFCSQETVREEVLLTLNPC
Experimental: Compounds A1–A54 were then evaluated for their bioactivity to inhibit pancreatic lipase. Each test was performed in triplicate, and the IC50 values were calculated based on the amount of inhibitor required to produce 50 % inhibition compared with the DMSO vehicle control.
Porcine pancreatic lipase was used to evaluate the inhibitory activity of the monascus pigment derivatives. p-Nitrophenyl butyrate ([…]) was used as the substrate. First, an enzyme-buffer solution was prepared by adding 30 μL of lipase solution (in 10 mM morpholinepropanesulfonic acid (MOPS) and 1 mM EDTA, pH 6.8) to 850 μL of Tris buffer (100 mM Tris–HCl and 5 mM CaCl2, pH 7.0). Pigment solutions were prepared by dissolving each pigment in a mixture (1:1) of ethanol and distilled water. Subsequently, 100 μL of the pigment solution was mixed with 880 μL of the enzyme-buffer solution. Following incubation of the enzyme-pigment mixture for 15 min at 37 °C, 20 μL of the substrate solution (10 mM p-NPB in dimethyl formamide) was added. Enzymatic reactions were conducted for 15 min at 37 °C. The hydrolysis of p-NPB to p-nitrophenol was monitored at 400 nm using a spectrophotometer. One unit of the enzyme was defined as the amount required to liberate 1 μmol of p-nitrophenol under standard assay conditions.

[2] = system: HFD-induced C57BL/6 J obese mice; assay: High-fat diet-induced obese mice (diet-induced obesity); format: in vivo; conditions: for cholesterol (CHO) level / triglyceride (TG) level: blood after final dose
Experimental: Male C57BL/6 J mice were obtained from Beijing HFK Bioscience Co., Ltd. (Certificate No. SCXK 2014-0004), housed in a temperature- and humidity-controlled room with a 12-hour light/dark cycle, and allowed free access to solid food and tap water for one week prior to the experiments. All of the procedures were performed in accordance with the Institute Ethical Committee for Experimental Animal Use of the Yunnan Province and the Kunming Institute of Botany.
The kits used to determine the triglyceride (TG) and cholesterol (CHO) levels were obtained from the Zhongsheng Beikong Bioengineering Institute.
Three-week-old C57BL/6 J male mice were fed a normal diet for 1 week for acclimatization. Randomly selected mice were fed a normal diet or a 45 % fat diet. After 4 months, the body weights of the mice in the obese group were 20 % higher than those in the control group. These obese mice were randomly divided into the following three groups: the model (45 % fat diet), orlistat (45 % fat diet + orlistat) and Compound groups (45 % fat diet + compound C1). The drugs (50 mg/kg orlistat or 100 mg/kg compound C1) were intragastrically administered for 1 month. During this period, the mice were weighed once every 3 days. Following administration of the final dose, blood samples were collected via the orbital vein after ethyl ether exposure, and epididymal fat was isolated. TG and CHO levels were measured using kits. The ratio of epididymal fat to body weight represents the amount of white adipose tissue (WAT) of each mouse (normalized to the body weight).
Student’s t test was used for comparisons between groups, as indicated in Fig. 2. #p < 0.05, ## or **p < 0.01.

[3] = system: HFD-induced C57BL/6 J obese mice; assay: as above; format: in vivo; conditions: up to 400 mg/kg, data not shown
[4] = compound C1 100 mg/kg, 100 mg/kg

CC(C)=CC[C@@]12C=C(COC(=O)CCCCCc3ccccc3)C[C@@H]1OC2=O [Compound A1, ((1R,5S)-1-(3-methylbut-2-en-1-yl)-7-oxo-6-oxabicyclo[3.2.0]hept-2-en-3-yl)methyl-6-phenylhexanoate]
IC50 [1]: 83 nM

CCCCCC[C@@H](OC(=O)[C@](OC)(c1ccccc1)C(F)(F)F)C1=C[C@@]2(CC=C(C)C)C(=O)O[C@H]2C1 [Compound B1, (R)-(R)-1-((1R,5S)-1-(3-methylbut-2-en-1-yl)-7-oxo-6-oxabicyclo[3.2.0]hept-2-en-3-yl)heptyl-3,3,3-trifluoro-2-methoxy-2-phenylpropanoate]
IC50 [1]: 30 nM

CCCCCCCCN(CCCCCCC)C(=O)C1=C[C@@]2(CC=C(C)C)C(=O)O[C@H]2C1 [Compound C1, (1R,5S)-N-heptyl-1-(3-methylbut-2-en-1-yl)-N-octyl-7-oxo-6-oxabicyclo[3.2.0]hept-2-ene-3-carboxamide]
in vivo activity compared with orlistat ([2]; C1 100 mg/kg vs orlistat 50 mg/kg): lower activity than that of orlistat | body weight ([2]; compound C1 100 mg/kg, 33 days, intragastric, vs HFD model group, 100 mg/kg): gradually decreased; also recorded: weight loss; also recorded: significantly low; also recorded: significantly lower | HFD-induced obesity ([2]; compound C1 100 mg/kg, 33 days, intragastric, 100 mg/kg): significantly decreased | cholesterol (CHO) level [2, 4]: significantly decreased | triglyceride (TG) level [2, 4]: significantly decreased; also recorded: significantly reduced | fat weight (epididymal white adipose tissue, normalized to body weight) ([2]; compound C1 100 mg/kg, one month, 100 mg/kg): gradually decreased; also recorded: significantly decreased | toxicity or adverse behavioral effects [3]: without toxicity or adverse behavioral effects | IC50 [1]: 14 nM | pancreatic lipase inhibitory activity, fold higher than that of vibralactone ([1]; relative to vibralactone): more than 3000 fold

CCCCCCCCN(CCCCCCCC)C(=O)C1=C[C@@]2(CC=C(C)C)C(=O)O[C@H]2C1 [Compound C2, (1R,5S)-1-(3-methylbut-2-en-1-yl)-N,N-dioctyl-7-oxo-6-oxabicyclo[3.2.0]hept-2-ene-3-carboxamide]
pancreatic lipase inhibitory activity compared with compound A1 [1]: higher inhibitory activities than compound A1

CCCCCCCN(CCCCCCC)C(=O)C1=C[C@@]2(CC=C(C)C)C(=O)O[C@H]2C1 [Compound C3, (1R,5S)-N,N-diheptyl-1-(3-methylbut-2-en-1-yl)-7-oxo-6-oxabicyclo[3.2.0]hept-2-ene-3-carboxamide]
pancreatic lipase inhibitory activity compared with compound A1 [1]: higher inhibitory activities than compound A1

CCCCCCCCCCC[C@@H](C[C@@H]1OC(=O)[C@H]1CCCCCC)OC(=O)[C@H](CC(C)C)NC=O [orlistat, reference compound]
cholesterol (CHO) level ([2]; orlistat 50 mg/kg): significantly decreased | triglyceride (TG) level ([2]; orlistat 50 mg/kg): significantly decreased | fat weight (epididymal white adipose tissue, normalized to body weight) ([2]; orlistat 50 mg/kg, one month): gradually decreased; also recorded: significantly decreased | body weight ([2]; orlistat 50 mg/kg, one month, intragastric): gradually decreased

CC(C)=CC[C@@]12C=C(CO)C[C@@H]1OC2=O [vibralactone, reference compound]
IC50 [1]: 47300 nM
